Data as given in DBAASP.
In brackets after ≈: the same amount, converted by molar mass.

Assays:
Test in all cases: ≥ marks a high value that may be exact or a test limit, other limits are often not marked, values filed in µg/mL are converted to µM
[1] = tested on: Escherichia coli KCTC 1682
[2] = tested on: Staphylococcus epidermidis KCTC 1917
[3] = tested on: Bacillus subtilis KCTC 3068
[4] = tested on: Salmonella typhimurium KCTC 1926
[5] = tested on: Pseudomonas aeruginosa KCTC 1637
[6] = tested on: Staphylococcus aureus KCTC 1621
[7] = tested on: Staphylococcus aureus ATCC BAA-1556
[8] = tested on: Escherichia coli DH5alpha

CC[C@H](C)[C@H](N)C(=O)NCC(=O)N[C@@H](CCCCN)C(=O)N[C@@H](CCCCN)C(=O)N[C@@H](Cc1ccccc1)C(=O)N[C@@H](CCCCN)C(=O)N[C@@H](CCCN=C(N)N)C(=O)N[C@H](C(=O)N[C@H](C(=O)N[C@@H](CCCCN)C(=O)N[C@@H](CCCN=C(N)N)C(=O)N[C@H](C(=O)N[C@@H](CCCCN)C(=O)N[C@@H](CCCCN)C(=O)N[C@@H](Cc1c[nH]c2ccccc12)C(=O)N[C@@H](CC(C)C)C(=O)N[C@@H](CCCN=C(N)N)C(=O)N[C@@H](CCCCN)C(=O)N[C@@H](CC(C)C)C(=O)O)[C@@H](C)CC)C(C)C)[C@@H](C)CC [IGKKFKRIVKRIKKWLRKL]
MIC [1]: 4 µM (≈ 9.76 µg/mL) | MIC [2]: 4 µM (≈ 9.76 µg/mL) | MIC [3]: 2 µM (≈ 4.88 µg/mL) | MIC [4]: 2 µM (≈ 4.88 µg/mL) | MIC [5]: 4 µM (≈ 9.76 µg/mL) | MIC [6]: 2 µM (≈ 4.88 µg/mL)

CC[C@H](C)[C@H](N)C(=O)N[C@@H](CC(C)C)C(=O)N[C@@H](CCCCN)C(=O)N[C@@H](Cc1c[nH]c2ccccc12)C(=O)N[C@@H](CCCCN)C(=O)N[C@@H](Cc1c[nH]c2ccccc12)C(=O)N[C@@H](CCCCN)C(=O)N[C@@H](Cc1c[nH]c2ccccc12)C(=O)N[C@@H](Cc1c[nH]c2ccccc12)C(=O)N[C@@H](CCCCN)C(=O)N[C@@H](Cc1c[nH]c2ccccc12)C(=O)N[C@@H](CCCN=C(N)N)C(=O)N[C@@H](CCCN=C(N)N)C(N)=O [ILKWKWKWWKWRR]
MIC [1]: 5 µM (≈ 10 µg/mL) | MIC [2]: 5 µM (≈ 10 µg/mL) | MIC [3]: 2.5 µM (≈ 5 µg/mL) | MIC [4]: 2.5 µM (≈ 5 µg/mL) | MIC [5]: 5 µM (≈ 10 µg/mL) | MIC [6]: 2.5 µM (≈ 5 µg/mL)

CC[C@H](C)[C@H](N)C(=O)N[C@@H](CC(C)C)C(=O)N1CCC[C@H]1C(=O)N[C@@H](Cc1c[nH]c2ccccc12)C(=O)N[C@@H](CCCCN)C(=O)N[C@@H](CCCCN)C(=O)N1CCC[C@H]1C(=O)N[C@@H](CCCCN)C(=O)N[C@@H](CCCCN)C(=O)N1CCC[C@H]1C(=O)N[C@@H](CCCCN)C(=O)N[C@@H](CCCN=C(N)N)C(=O)N[C@@H](CCCN=C(N)N)C(N)=O [ILPWKKPKKPKRR]
MIC [1]: 5.97 µM (≈ 9.99 µg/mL) | MIC [2]: 2.98 µM (≈ 5 µg/mL) | MIC [3]: 5.97 µM (≈ 9.99 µg/mL) | MIC [4]: 2.98 µM (≈ 5 µg/mL) | MIC [5]: 5.97 µM (≈ 9.99 µg/mL) | MIC [6]: 5.97 µM (≈ 9.99 µg/mL)

CC[C@H](C)[C@H](N)C(=O)N[C@@H](CC(C)C)C(=O)N1CCC[C@H]1C(=O)N[C@@H](Cc1c[nH]c2ccccc12)C(=O)N[C@@H](CCCCN)C(=O)N[C@@H](Cc1c[nH]c2ccccc12)C(=O)N1CCC[C@H]1C(=O)N[C@@H](CCCCN)C(=O)N[C@@H](Cc1c[nH]c2ccccc12)C(=O)N1CCC[C@H]1C(=O)N[C@@H](Cc1c[nH]c2ccccc12)C(=O)N[C@@H](CCCN=C(N)N)C(=O)N[C@@H](CCCN=C(N)N)C(N)=O [ILPWKWPKWPWRR]
MIC [1]: 2.7 µM (≈ 5 µg/mL) | MIC [2]: 2.7 µM (≈ 5 µg/mL) | MIC [3]: 5.41 µM (≈ 9.99 µg/mL) | MIC [4]: 2.7 µM (≈ 5 µg/mL) | MIC [5]: 10.8 µM (≈ 20 µg/mL) | MIC [6]: 2.7 µM (≈ 5 µg/mL)

CC[C@H](C)[C@H](NC(=O)[C@H](Cc1c[nH]c2ccccc12)NC(=O)[C@H](CCCN=C(N)N)NC(=O)[C@H](CCCN=C(N)N)NC(=O)[C@H](C)NC(=O)[C@@H](N)CCCCN)C(=O)N[C@@H](CCCN=C(N)N)C(=O)N[C@@H](Cc1c[nH]c2ccccc12)C(=O)N[C@@H](CC(C)C)C(N)=O [KARRWIRWL]
MIC [7]: 25 µM (≈ 32.1 µg/mL)

C[C@@H](O)[C@H](NC(=O)[C@H](CCCCN)NC(=O)[C@H](Cc1c[nH]c2ccccc12)NC(=O)[C@H](Cc1c[nH]c2ccccc12)NC(=O)[C@@H](NC(=O)[C@H](CCCCN)NC(=O)[C@@H](N)CCCCN)[C@@H](C)O)C(=O)N[C@@H](Cc1c[nH]c2ccccc12)C(=O)N[C@@H](Cc1c[nH]c2ccccc12)C(=O)N[C@H](C(=O)N[C@@H](CCCCN)C(=O)N[C@@H](Cc1c[nH]c2ccccc12)C(=O)N[C@@H](CO)C(=O)N[C@@H](CCC(N)=O)C(=O)N1CCC[C@H]1C(=O)O)[C@@H](C)O [KKTWWKTWWTKWSQP]
MIC [1]: 4 µM (≈ 8.31 µg/mL) | MIC [2]: 4 µM (≈ 8.31 µg/mL) | MIC [3]: 2 µM (≈ 4.15 µg/mL) | MIC [4]: 4 µM (≈ 8.31 µg/mL) | MIC [5]: 8 µM (≈ 16.6 µg/mL) | MIC [6]: 4 µM (≈ 8.31 µg/mL)

CC(C)C[C@H](NC(=O)[C@H](CC(C)C)NC(=O)[C@H](CCCCN)NC(=O)[C@H](CC(C)C)NC(=O)[C@H](CC(C)C)NC(=O)[C@H](Cc1c[nH]c2ccccc12)NC(=O)[C@H](CCCCN)NC(=O)[C@H](CC(C)C)NC(=O)[C@H](CC(C)C)NC(=O)[C@@H](N)CCCCN)C(N)=O [KLLKWLLKLL]
MIC [7]: 3.13 µM (≈ 3.96 µg/mL)

CC(C)C[C@H](NC(=O)[C@H](CC(C)C)NC(=O)[C@H](CCCCN)NC(=O)[C@H](CC(C)C)NC(=O)[C@H](CC(C)C)NC(=O)[C@H](CC(C)C)NC(=O)[C@H](CC(C)C)NC(=O)[C@H](CC(C)C)NC(=O)[C@@H](N)CCCCN)C(N)=O [KLLLLLKLL]
MIC [7]: ≥ 100 µM

CC[C@H](C)[C@H](NC(=O)[C@H](CCCN=C(N)N)NC(=O)[C@H](CCC(N)=O)NC(=O)[C@@H](NC(=O)[C@@H](NC(=O)[C@H](CCCN=C(N)N)NC(=O)[C@@H](N)CCCCN)[C@@H](C)CC)C(C)C)C(=O)N[C@@H](CCCCN)C(=O)N[C@@H](CC(=O)O)C(=O)N[C@@H](Cc1c[nH]c2ccccc12)C(=O)N[C@@H](CC(C)C)C(=O)N[C@@H](CCCN=C(N)N)C(N)=O [KRIVQRIKDWLR]
MIC [1]: 2 µM (≈ 3.22 µg/mL) | MIC [2]: 1 µM (≈ 1.61 µg/mL) | MIC [3]: 4 µM (≈ 6.44 µg/mL) | MIC [4]: 4 µM (≈ 6.44 µg/mL) | MIC [5]: 8 µM (≈ 12.9 µg/mL) | MIC [6]: 2 µM (≈ 3.22 µg/mL)

CC[C@H](C)[C@H](NC(=O)[C@H](Cc1c[nH]c2ccccc12)NC(=O)[C@H](CCCN=C(N)N)NC(=O)[C@H](CC(C)C)NC(=O)[C@H](Cc1c[nH]c2ccccc12)NC(=O)[C@@H](N)CCCCN)C(=O)N[C@@H](CCCN=C(N)N)C(=O)N[C@@H](Cc1c[nH]c2ccccc12)C(=O)N[C@@H](CC(C)C)C(N)=O [KWLRWIRWL]
MIC [7]: 6.25 µM (≈ 8.47 µg/mL)

CC[C@H](C)[C@H](NC(=O)[C@H](Cc1c[nH]c2ccccc12)NC(=O)[C@H](C)NC(=O)[C@H](CCCN=C(N)N)NC(=O)[C@H](Cc1c[nH]c2ccccc12)NC(=O)[C@@H](N)CCCCN)C(=O)N[C@@H](CCCN=C(N)N)C(=O)N[C@@H](Cc1c[nH]c2ccccc12)C(=O)N[C@@H](CC(C)C)C(N)=O [KWRAWIRWL]
MIC [7]: 12.5 µM (≈ 16.4 µg/mL)

CC(C)C[C@H](NC(=O)[C@H](CC(C)C)NC(=O)[C@H](CCCCN)NC(=O)[C@H](CC(C)C)NC(=O)[C@H](CC(C)C)NC(=O)[C@H](Cc1c[nH]c2ccccc12)NC(=O)[C@H](CCCCN)NC(=O)[C@@H](N)CC(C)C)C(N)=O [LKWLLKLL]
MIC [7]: 12.5 µM (≈ 12.8 µg/mL)

CC(C)C[C@H](NC(=O)[C@H](CC(C)C)NC(=O)[C@H](CC(C)C)NC(=O)[C@H](CCCCN)NC(=O)[C@H](CC(C)C)NC(=O)[C@H](CC(C)C)NC(=O)[C@H](CCCCN)NC(=O)[C@H](CC(C)C)NC(=O)[C@@H](N)CC(C)C)C(N)=O [LLKLLKLLL]
MIC [7]: 3.13 µM (≈ 3.34 µg/mL)

CC(C)C[C@H](NC(=O)[C@H](CC(C)C)NC(=O)[C@H](CCCCN)NC(=O)[C@H](CC(C)C)NC(=O)[C@H](CC(C)C)NC(=O)[C@H](CC(C)C)NC(=O)[C@H](CCCCN)NC(=O)[C@H](CC(C)C)NC(=O)[C@@H](N)CC(C)C)C(=O)O [LLKLLLKLL]
MIC [7]: ≥ 100 µM

CC(C)C[C@H](NC(=O)[C@H](CCCCN)NC(=O)[C@H](CC(C)C)NC(=O)[C@H](CC(C)C)NC(=O)[C@H](CC(C)C)NC(=O)[C@H](CCCCN)NC(=O)[C@H](CC(C)C)NC(=O)[C@@H](N)CC(C)C)C(N)=O [LLKLLLKL]
MIC [7]: ≥ 100 µM

CC(C)C[C@H](NC(=O)[C@H](CCCCN)NC(=O)[C@H](CC(C)C)NC(=O)[C@H](CC(C)C)NC(=O)[C@H](CC(C)C)NC(=O)[C@H](CC(C)C)NC(=O)[C@H](CCCCN)NC(=O)[C@H](CC(C)C)NC(=O)[C@@H](N)CC(C)C)C(N)=O [LLKLLLLKL]
MIC [7]: ≥ 100 µM

CC(C)C[C@H](NC(=O)[C@H](CCCCN)NC(=O)[C@H](CC(C)C)NC(=O)[C@H](CC(C)C)NC(=O)[C@H](CC(C)C)NC(=O)[C@H](CCCCN)NC(=O)[C@H](CC(C)C)NC(=O)[C@H](CC(C)C)NC(=O)[C@@H](N)CC(C)C)C(N)=O [LLLKLLLKL]
MIC [7]: ≥ 100 µM

CC[C@H](C)[C@H](NC(=O)[C@H](C)NC(=O)[C@H](CCCN=C(N)N)NC(=O)[C@@H]1CCCN1C(=O)[C@H](CC(C)C)NC(=O)[C@H](CC(N)=O)NC(=O)[C@H](Cc1ccc(O)cc1)NC(=O)CNC(=O)[C@H](C)NC(=O)[C@@H](NC(=O)[C@@H](NC(=O)[C@@H](NC(=O)[C@H](CCCN=C(N)N)NC(=O)[C@@H](NC(=O)[C@@H](NC(=O)[C@H](CC(C)C)NC(=O)[C@H](Cc1ccc(O)cc1)NC(=O)[C@H](Cc1c[nH]c2ccccc12)NC(=O)[C@@H](NC(=O)[C@H](CCCN=C(N)N)NC(=O)[C@H](CCCCN)NC(=O)[C@@H](NC(=O)[C@@H](N)CCCN=C(N)N)C(C)C)C(C)C)C(C)C)[C@@H](C)CC)[C@@H](C)O)C(C)C)[C@@H](C)CC)C(=O)N[C@@H](CCCCN)C(=O)N[C@@H](CCCCN)C(=O)N[C@@H](CCCCN)C(=O)O [RVKRVWYLVIRTVIAGYNLPRAIKKK]
MIC [1]: 4 µM (≈ 12.6 µg/mL) | MIC [2]: 8 µM (≈ 25.1 µg/mL) | MIC [3]: 8 µM (≈ 25.1 µg/mL) | MIC [4]: 8 µM (≈ 25.1 µg/mL) | MIC [5]: 8 µM (≈ 25.1 µg/mL) | MIC [6]: 8 µM (≈ 25.1 µg/mL)

CC[C@H](C)[C@H](NC(=O)[C@H](Cc1c[nH]c2ccccc12)NC(=O)[C@@H](N)CCCN=C(N)N)C(=O)N[C@@H](CCCN=C(N)N)C(=O)N[C@@H](Cc1c[nH]c2ccccc12)C(=O)N[C@@H](CC(C)C)C(N)=O [RWIRWL]
MIC [7]: ≥ 100 µM

C[C@@H](O)[C@H](NC(=O)[C@H](CCCN=C(N)N)NC(=O)[C@H](CCCN=C(N)N)NC(=O)[C@H](CC(N)=O)NC(=O)[C@H](Cc1c[nH]c2ccccc12)NC(=O)[C@H](CCCN=C(N)N)NC(=O)[C@H](Cc1c[nH]c2ccccc12)NC(=O)[C@@H](N)CCCN=C(N)N)C(=O)NCC(=O)N[C@@H](CCCN=C(N)N)C(=O)N[C@@H](Cc1c[nH]c2ccccc12)C(=O)N[C@@H](CCCN=C(N)N)C(=O)N[C@@H](Cc1c[nH]c2ccccc12)C(=O)N[C@@H](Cc1ccc(O)cc1)C(=O)O [RWRWNRRTGRWRWY]
MIC [8]: 12.5 µM (≈ 26.7 µg/mL)
